Laboratory results taken from ChEMBL document CHEMBL1145504, “Sensitivity of monkey B virus (Cercopithecine herpesvirus 1) to antiviral drugs: role of thymidine kinase in antiviral activities of substrate analogs and acyclonucleosides” (Antimicrob Agents Chemother, 2007).
“And” between values parts separate entries of the source, which are not always exact repeats. Equal values may be shown once. The source made the active and inactive calls. The calls are words filed in the database; no cut-off is given here.

T1: Thymidine kinase (Macacine herpesvirus 1, UniProt A3RLP8)
T1 sequence (A3RLP8 whole entry): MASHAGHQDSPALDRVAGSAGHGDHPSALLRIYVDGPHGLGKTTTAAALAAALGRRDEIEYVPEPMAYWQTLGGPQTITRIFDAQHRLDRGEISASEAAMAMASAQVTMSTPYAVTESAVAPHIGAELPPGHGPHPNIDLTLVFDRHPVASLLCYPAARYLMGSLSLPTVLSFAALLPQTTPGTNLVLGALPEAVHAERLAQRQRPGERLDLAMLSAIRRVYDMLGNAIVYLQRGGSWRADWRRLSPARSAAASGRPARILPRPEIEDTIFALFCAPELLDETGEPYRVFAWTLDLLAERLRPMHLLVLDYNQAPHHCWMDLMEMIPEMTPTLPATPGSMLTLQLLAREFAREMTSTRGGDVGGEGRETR

T2: Thymidine kinase (Macacine herpesvirus 1) (UniProt A3RLP8)
T2 sequence (whole entry): T1 sequence (A3RLP8 whole entry)

B1: Thymidine kinase (Macacine herpesvirus 1), A3RLP8 (protein)
chain: T1 sequence (A3RLP8 whole entry)
B2: Thymidine kinase (Human alphaherpesvirus 1), Q9QNF7 (protein)
chain: MASYPCHQHASAFDQAARSRGHSNRRTALRPRRQQEATEVRLEQKMPTLLRVYIDGPHGMGKTTTTQLLVALGSRDDIVYVPEPMTYWQVLGASETIANIYTTQHRLDQGEISAGDAAVVMTSAQITMGMPYAVTDAVLAPHIGGEAGSSHAPPPALTLIFDRHPIAALLCYPAARYLMGSMTPQAVLAFVALIPPTLPGTNIVLGALPEDRHIDRLAKRQRPGERLDLAMLAAIRRVYGLLANTVRYLQGGGSWREDWGQLSGTAVPPQGAEPQSNAGPRPHIGDTLFTLFRAPELLAPNGDLYNVFAWALDVLAKRLRPMHVFILDYDQSPAGCRDALLQLTSGMVQTHVTTPGSIPTICDLARTFAREMGEAN

Key:
[1] = target: T1, Thymidine kinase
[2] = target: T2, Thymidine kinase (Macacine herpesvirus 1); test: Activity of Herpes B virus recombinant thymidine kinase at 100 uM; details: Macacine alphaherpesvirus 1
[3] = test system: Human alphaherpesvirus 1; test: microbe, parasite or virus in culture; format: functional, organism-based; details: Human alphaherpesvirus 1, F, Vero
[4] = test system: Macacine alphaherpesvirus 1; test: microbe, parasite or virus in culture; format: functional, organism-based; details: Macacine alphaherpesvirus 1, Vero
[5] = test system: Macacine alphaherpesvirus 1; test: microbe, parasite or virus in culture; format: functional, organism-based; details: Macacine alphaherpesvirus 1, Vero; remark: listed apart in the source
[6] = Cytotoxicity against african green monkey Vero cells after 2 days; format: cell-based; details: chlorocebus sabaeus
[7] = target: T2, Thymidine kinase (Macacine herpesvirus 1); details: Macacine alphaherpesvirus 1; 100 uM
[8] = target: T2, Thymidine kinase (Macacine herpesvirus 1); test: Activity of Herpes B virus recombinant thymidine kinase at 1 mM; details: Macacine alphaherpesvirus 1
[9] = test system: Macacine alphaherpesvirus 1; test: microbe, parasite or virus in culture; format: functional, organism-based; details: Macacine alphaherpesvirus 1, Vero; remark: listed apart in the source
[10] = substrate: O=c1[nH]c(Nc2ccccc2)nc2c1ncn2CCCCO; test: (§1) Activity of Herpes B virus recombinant thymidine kinase; details: Macacine alphaherpesvirus 1
[11] = substrate: Cc1cn([C@H]2C[C@H](O)[C@@H](CO)O2)c(=O)[nH]c1=O; test: as §1; details: Macacine alphaherpesvirus 1
[12] = substrate: Cc1cn([C@H]2C[C@H](O)[C@@H](CO)O2)c(=O)[nH]c1=O; details: Human alphaherpesvirus 1

Molecule | IC50 [1] [µM] | Activity [2] | EC50 [3] [µM] | EC50 [4] [µM] | EC50 [5] [µM] | CC50 at 48 h [6] [µM] | further results
CCCc1cn([C@H]2C[C@H](O)[C@@H](CO)O2)c(=O)[nH]c1=O | 4.2 | 31% | – | – | – | – | –
Nc1nc2c(ncn2CCCCO)c(=O)[nH]1 | 177 | 94% | – | – | – | – | –
CCc1cn([C@@H]2C[C@H](O)[C@@H](CO)O2)c(=O)[nH]c1=O | 52 | – | – | – | – | – | –
O=c1[nH]c(Nc2cccc(C(F)(F)F)c2)nc2nc[nH]c12 | 3.5 | – | – | – | – | – | –
O=c1[nH]c(Nc2ccccc2)nc2c1ncn2CCCCO | – | 200% | 330 | > 330 | > 330 | > 660 | –
CN(C)CCCCn1cnc2c(O)nc(Nc3ccccc3)nc21 | 1.2 | – | – | – | – | – | –
Cc1cc(=O)[nH]c(=O)n1[C@@H]1O[C@H](CO)[C@@H](O)[C@H]1O | – | – | – | – | – | – | Activity [7]: inactive
O=c1ccn([C@@H]2O[C@H](CO)[C@H](O)[C@@H]2O)c(=O)[nH]1 | – | – | – | – | – | – | Activity [7]: inactive
O=c1[nH]c(=O)n(C2C[C@H](O)[C@@H](CO)O2)cc1/C=C/Br (single isomer, unassigned) | – | inactive | – | – | – | – | Activity [8]: inactive
O=c1[nH]c(=O)n(C2C[C@H](O)[C@@H](CO)O2)cc1I (single isomer, unassigned) | – | 94% | – | – | – | – | –
Cc1cn([C@H]2C[C@H](O)[C@@H](CO)O2)c(=O)[nH]c1=O (stereo in doubt; form 1) | – | 130% | – | – | – | – | –
Cc1cn([C@H]2C[C@H](O)[C@@H](CO)O2)c(=O)[nH]c1=O (stereo in doubt; form 2) | – | 100% | – | – | – | – | –
Nc1nc2c(ncn2COCCO)c(=O)[nH]1 [ACYCLOVIR] | – | inactive | 1.4 | 118 | 112 | > 890 | EC50 [9]: 47.5 µM; Activity [8]: inactive
O=c1[nH]c(=O)n([C@H]2C[C@H](O)[C@@H](CO)O2)cc1/C=C/Br [BRIVUDINE] | – | inactive | 0.12 | > 300 | > 300 | > 600 | Activity [8]: inactive
Nc1ccn(C[C@@H](CO)OCP(=O)(O)O)c(=O)n1 [CIDOFOVIR] | 900 | inactive | 14.4 | 21.6 | 28.9 | > 720 | Activity [8]: inactive
CCc1cn([C@H]2C[C@H](O)[C@@H](CO)O2)c(=O)[nH]c1=O [EDOXUDINE] | 0.15 | 82% | 2.1 | 48 | 37.4 | > 780 | EC50 [9]: 13.3 µM
O=C(O)P(=O)(O)O [FOSCARNET] | – | – | 250 | 250 | > 500 | > 1 | –
Nc1nc(O)c2ncn(COC(CO)CO)c2n1 [GANCICLOVIR] | 800 | – | – | – | – | 666 | –
Nc1nc2c(ncn2COC(CO)CO)c(=O)[nH]1 [GANCICLOVIR] | – | inactive | 0.7 | 23.5 | 14.5 | – | EC50 [9]: 19.2 µM; Activity [8]: inactive
O=c1[nH]c(=O)n([C@H]2C[C@H](O)[C@@H](CO)O2)cc1I [IDOXURIDINE] | – | 58% | 2.8 | 8.5 | 11.2 | 6.8 | –
Nc1nc(O)c2ncn(CCC(CO)CO)c2n1 [PENCICLOVIR] | – | 72% | 4.7 | 25.3 | 17 | – | EC50 [9]: 17.3 µM
Nc1nc2c(ncn2CCC(CO)CO)c(=O)[nH]1 [PENCICLOVIR] | 84.4 | – | – | – | – | > 790 | –
O=c1[nH]c(=O)n([C@H]2C[C@H](O)[C@@H](CO)O2)cc1C(F)(F)F [TRIFLURIDINE] | 2 | 55% | < 1.7 | 3.4 | 1.7 | 50.6 | –
Nc1ncnc2c1ncn2[C@@H]1O[C@H](CO)[C@@H](O)[C@@H]1O [VIDARABINE] | – | – | 7 | 35 | 28 | 38 | Activity [7]: inactive
B1 | – | – | – | – | – | – | Km [10]: 7.4 µM; Vmax (nmol/hr/microg) [10]: 3.9; Km [11]: 0.7 µM and 0.65 µM; Vmax (nmol/hr/microg) [11]: 0.2 and 0.15
B2 | – | – | – | – | – | – | Km [12]: 1 µM
